Values of other authors as cited in patent US20050049232A1, “Composition” (priority 2001, published 2005).

Tested on: androgenic alopecia patients
Conditions: topical solutions, alone or in combination with skin penetration enhancers such as DMSO

Nc1cc(N2CCCCC2)nc(N)[n+]1[O-] [minoxidil, 2,4-diamino-6-piperidino-pyrimidine-3-oxide]
patients with moderate to dense regrowth of hair: less than 40%
